Assay results taken from PubChem BioAssay (NCI).
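Grown in 96-well plates, cells were treated for 48 hours with each compound at five concentrations. Insufficient inhibition: endpoint recorded as highest concentration tested. GI50: concentration for 50% inhibition of growth. TGI: total growth inhibition.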

Key:
Assay in all cases: DTP human tumour cell line panel, 48 h
A549 NSCLC = system: A549 NSCLC
CCRF-CEM leukemia = system: CCRF-CEM leukemia
HCT-116 colon = system: HCT-116 colon
HOP-92 NSCLC = system: HOP-92 NSCLC
IGROV1 ovarian = system: IGROV1 ovarian
K-562 leukemia = system: K-562 leukemia
MDA-MB-435 = system: MDA-MB-435
NCI/ADR-RES ovarian = system: NCI/ADR-RES ovarian
RXF 393 renal = system: RXF 393 renal
U251 CNS = system: U251 CNS

SMILES | TGI (A549 NSCLC) [µM] | TGI (CCRF-CEM leukemia) [µM] | TGI (HCT-116 colon) [µM] | TGI (HOP-92 NSCLC) [µM] | TGI (IGROV1 ovarian) [µM] | TGI (K-562 leukemia) [µM] | TGI (MDA-MB-435) [µM] | TGI (NCI/ADR-RES ovarian) [µM] | TGI (RXF 393 renal) [µM] | TGI (U251 CNS) [µM] | GI50 (A549 NSCLC) [µM] | GI50 (CCRF-CEM leukemia) [µM] | GI50 (HCT-116 colon) [µM] | GI50 (HOP-92 NSCLC) [µM] | GI50 (IGROV1 ovarian) [µM] | GI50 (K-562 leukemia) [µM] | GI50 (MDA-MB-435) [µM] | GI50 (NCI/ADR-RES ovarian) [µM] | GI50 (U251 CNS) [µM]
CCOC(=O)/C=C(\C(=O)OCC)n1cnc2c(N)ncnc21 | 32.2 | 4.51 | 12.3 | 7.12 | 26.7 | 5.52 | 24.7 | 37 | 26.4 | 20.8 |  |  |  |  |  |  |  |  | 
Cn1c(=O)c2nc3nnc(C#N)c(N)n3c2n(C)c1=O | > 100 | > 100 | > 100 | > 100 | > 100 | > 100 | > 100 | > 100 | > 100 | > 100 |  |  |  |  |  |  |  |  | 
COc1cc(/C=C/c2sc3ccccc3[n+]2C)ccc1N(C)C | > 100 | 13.9 | 17.9 | 34.9 | 22 | 6.16 | 22.5 | > 100 | 33.5 | 21.8 | 7.08 | 3.76 | 6.05 | 13 | 9.14 | 1.86 | 10.2 | > 100 | 8.06
c1ccc2c(c1)CCN1CCc3c([nH]c4ccccc34)C21 (centres undefined) | > 100 | 95.5 | 76.5 | 72.2 | > 100 | 43.3 | 75.5 | 56.9 | 72.3 | > 100 |  |  |  |  |  |  |  |  | 
COc1ccc(N2CCN(Cc3c(C(C)=O)[n+](=O)c4ccccc4n3[O-])CC2)cc1 | > 100 | > 100 | > 100 | > 100 | > 100 | > 100 | > 100 | > 100 | 83.4 | > 100 |  |  |  |  |  |  |  |  | 
COC1=CC(=O)c2c(O)ccc(O)c2C1=O | 4.09 | 43.6 | 31.2 | 33 | 37.5 | > 100 | 1.34 | 60.2 | 31.3 | 22.1 |  |  |  |  |  |  |  |  | 
COc1ccc(C(=O)/C=C/c2ccc(OCC(=O)O)cc2)cc1 | > 100 | > 100 | > 100 | > 100 | > 100 | > 100 | > 100 | > 100 | > 100 | 79.9 |  |  |  |  |  |  |  |  | 
Cc1nn(-c2ccccc2)c2c1C(c1cc3ccccc3nc1Cl)NC(=S)N2 (centres undefined) | > 100 | > 100 | > 100 | 96.6 | 37.6 | > 100 | > 100 | > 100 | 71.8 | 83 |  |  |  |  |  |  |  |  | 
C=C(CN(C)C)C(=O)c1cc(C)ccc1C | 41.6 | 1.37 | 17.4 | 8.2 | 34.7 | 8.16 | 22.1 | > 85.1 | 9.52 | 33.5 |  |  |  |  |  |  |  |  | 
c1ccc(SC(Sc2ccccc2)c2ccc3c(c2)OCO3)cc1 | > 100 | > 100 | > 100 | > 100 | > 100 | > 100 | > 100 | > 100 | > 100 | > 100 |  |  |  |  |  |  |  |  | 
CCn1c(-c2ccccc2)nc2c1C(=O)c1ccccc1C2=O | > 100 | > 100 | 63.6 | 82 | 79.8 | > 100 | 33.8 | 33.9 | 50.9 | > 100 |  |  |  |  |  |  |  |  | 
O=C(Nc1ccccc1)Nn1c(-c2cccs2)nc2ccc(I)cc2c1=O | 49.4 | 60.8 | > 100 | 59.7 | 71.7 | 10.4 | 43.3 | > 100 | > 100 | 64.8 |  |  |  |  |  |  |  |  | 
O=C1C=CC[C@H](/C=C/C[C@@H](O)C[C@H](O)/C=C/c2ccccc2)O1 | 33.5 | 19.1 | 17.4 | 13.7 | 28 | 42.3 | 23.4 | 65.3 | 22.1 | 25.7 |  |  |  |  |  |  |  |  | 
CC(=O)O[C@H]1[C@H](OC(C)=O)[C@@H](CN=[N+]=[N-])OCO[C@@H]1CN=[N+]=[N-] | > 100 | > 100 | > 100 | > 100 | > 100 | > 100 | > 100 | > 100 | > 100 | > 100 |  |  |  |  |  |  |  |  | 
OCCCCn1cc(Cn2ncc3c(SCc4ccccc4)ncnc32)nn1 | > 100 | > 100 | > 100 | > 100 | > 100 | > 100 | > 100 | > 100 | > 100 | > 100 |  |  |  |  |  |  |  |  | 
c1nc(SSc2ncnc3nc[nH]c23)c2[nH]cnc2n1 | > 100 | > 100 | > 100 | > 100 | > 100 | > 100 | > 85.3 | > 30.5 | > 100 | > 100 |  |  |  |  |  |  |  |  | 

SMILES | TGI (A549 NSCLC) [µM] | TGI (CCRF-CEM leukemia) [µM] | TGI (HCT-116 colon) [µM] | TGI (HOP-92 NSCLC) [µM] | TGI (IGROV1 ovarian) [µM] | TGI (K-562 leukemia) [µM] | TGI (MDA-MB-435) [µM] | TGI (NCI/ADR-RES ovarian) [µM] | TGI (RXF 393 renal) [µM] | TGI (U251 CNS) [µM] | GI50 (A549 NSCLC) [µM] | GI50 (CCRF-CEM leukemia) [µM] | GI50 (HCT-116 colon) [µM] | GI50 (HOP-92 NSCLC) [µM] | GI50 (IGROV1 ovarian) [µM] | GI50 (K-562 leukemia) [µM] | GI50 (MDA-MB-435) [µM] | GI50 (NCI/ADR-RES ovarian) [µM] | GI50 (U251 CNS) [µM]
O=C1N(CN2CCOCC2)CN(CN2CCOCC2)C(=O)N1Cc1ccccc1 | > 100 | 75.8 | 54.4 | 73 | 64.9 | 51.4 | 38 | 61.7 | 35.7 | 56.8 |  |  |  |  |  |  |  |  | 
O=c1[nH]cc(N(CCCl)CCCl)c(=O)[nH]1 | 314 | 113 | 179 | 123 | 266 | 283 | 136 | 160 | 81.1 | 253 |  |  |  |  |  |  |  |  | 
COc1ccc2c[n+](C)c3c4cc(OC)c(OC)cc4ccc3c2c1 | 10.3 | 31.2 | 16.8 | 35.3 | 22.1 | 34.9 | 28.4 | > 100 | 35.2 | 15.3 |  |  |  |  |  |  |  |  | 
COc1ccc(C(=O)Cn2c(C(C)=O)nc3ccccc32)cc1 | > 100 | > 100 | > 100 | > 100 | > 100 | > 100 | > 100 | > 100 | > 100 | 31.8 |  |  |  |  |  |  |  |  | 
COCC(=O)OC1CCn2c1nc1c2C(=O)C(C)=C(NC(C)=O)C1=N (centres undefined) | 42.5 | 8.27 | 11.4 | 9.11 | 24.2 | 4.59 | 3.59 | 17.6 | 6.47 | 17.9 |  |  |  |  |  |  |  |  | 
CN(C)CS/C(N)=N\C(O)C(Cl)(Cl)Cl (centres undefined) | > 100 | > 100 | > 100 | > 100 | > 100 | > 100 | > 100 | > 100 | > 100 | > 100 |  |  |  |  |  |  |  |  | 
CC1(C)CCCCCC(C)(CCCCCCCCCCCO)C1=O (centres undefined) | 29 | 29.7 | 28.8 | 31.2 | 32.6 | 31 | 30.9 | 27 | 31.4 | 31.1 |  |  |  |  |  |  |  |  | 
O=C1c2ccccc2C(=O)c2c1oc(=O)c1ccccc21 | > 25 | 16 | 4.27 | 11.9 | 10.4 | 17.9 | 3.61 | 10.2 | 9.62 | 12.2 |  |  |  |  |  |  |  |  | 
O=C1OC2c3ccccc3C(=O)C2(c2ccccc2)N1c1ccccc1 (centres undefined) | > 200 | > 200 | > 200 | > 200 | > 200 | > 200 | > 200 | > 200 | > 200 | > 200 |  |  |  |  |  |  |  |  | 
Cc1ccc(S(=O)C[C@@]2(C(F)F)NC(=O)NC2=O)cc1 (some centres undefined) | > 100 | > 100 | > 100 | > 100 | > 100 | > 100 | > 100 | > 100 | > 100 | > 100 |  |  |  |  |  |  |  |  | 
CC(=O)Nc1ccc(S(=O)(=O)[N-]C2C(=O)c3ccccc3C(=O)C2[n+]2ccccc2)cc1 (centres undefined) | 39.7 | 40.5 | > 100 | 33.6 | 30 | > 100 | 14.9 | 38.8 | 30.4 | 27.3 |  |  |  |  |  |  |  |  | 
NC1=NN(c2ccccc2)C2(c3ccncc3C(=O)O)C1C(N)=NN2c1ccccc1 (centres undefined) | > 100 | > 100 | > 100 | > 100 | > 100 | > 100 | > 100 | > 100 | > 100 | > 100 |  |  |  |  |  |  |  |  | 
O=c1oc2cccnc2n1CCN1CCN(c2ccc(Oc3ccccc3)cc2)CC1 | > 100 | > 100 | > 100 | > 100 | > 100 | > 100 | > 100 | > 100 | > 100 | > 100 |  |  |  |  |  |  |  |  | 
O=NNc1cnccn1 | > 1250 | > 1250 | > 1250 | > 1250 | > 1250 | > 1250 | > 1250 | > 1250 | > 1250 | > 1250 |  |  |  |  |  |  |  |  | 
O=c1c[n+](-c2ccccc2)[nH]o1 | > 100 | > 100 | > 100 | > 100 | > 100 | > 100 | > 100 | > 100 | > 100 | > 100 |  |  |  |  |  |  |  |  | 
CC(=O)O[C@H]1CC[C@H]2[C@@H]3CCC4=C(C(=O)C=CC4(C)OC(C)=O)[C@H]3CC[C@]12C (some centres undefined) | > 100 | > 100 | > 100 | > 100 | > 100 | > 100 | > 100 | > 100 | 92.1 | > 100 |  |  |  |  |  |  |  |  | 
